Like-named read-outs stand apart in the source and are kept apart here.
Key:
[1] = tested on: male KKA^y mice (obesity/noninsulin-dependent diabetes mellitus model); experiment: Blood glucose lowering effect and blood lipid (blood TG and blood FFA) lowering effect in mice; format: in vivo; settings: 1 mg/kg/day oral, once a day over seven days, plasma on the day following final administration, vs control group; for inhibition in vivo at 1 mg/kg/day: Mus musculus, po, 168 h
Description: Blood glucose Lowering Effect and Blood Lipid (Blood TG and Blood FFA) Lowering Effect in Mice
Each of the test compounds was suspended in a 0.5-%(w/v) sodium CMC solution, and the suspension was forcedly administered via oral route once a day over seven days to male KKA^y mice (obesity/noninsulin-dependent diabetes mellitus model, 6 to 7 weeks old, 3 to 5 animals per group) (1 mg/kg/day). During this 7-day period, feed and water were taken ad libitum. On the day following the final administration, blood was drawn from the tail vein without anesthesia and centrifuged, to thereby prepare plasma samples. Plasma glucose level, plasma TG level, and plasma FFA level of the samples were determined through the enzymatic method by use of an L-type Wako Glu2 (Wako Pure Chemical Industries), an L-type Wako TG-H (Wako Pure Chemical Industries), and an NEFA-HA Test Wako (Wako Pure Chemical Industries), respectively, by means of a full-automated clinical chemistry analyzer (CL-8000, Shimadzu Corporation). Percent reduction was determined from the obtained values by use of the following equations.

KKA^y mice = experiment: Plasma adiponectin level in KKA^y mice after two weeks of oral administration; format: in vivo; settings: over two weeks, 0.1, 0.3, or 1 mg/kg/day
Description: Separately, the present compound (1) or a salt thereof was orally administered to KKA^y mice over two weeks (0.1, 0.3, or 1 mg/kg/day), and plasma adiponectin level of each mouse was determined.

[2] = read-out: Percent reduction of blood FFA level
[3] = read-out: Percent reduction of blood TG level
[4] = read-out: Percent reduction of blood glucose level

| Structure (SMILES) | melting point [°C] | inhibition in vivo at 1 mg/kg/day [1, 2] [%] | inhibition in vivo at 1 mg/kg/day [1, 3] [%] | inhibition in vivo at 1 mg/kg/day [1, 4] [%] | also measured |
| --- | --- | --- | --- | --- | --- |
| Cc1oc(-c2ccccc2)nc1CCOc1ccc(C[C@H](NCc2ccccc2)C(=O)O)cc1 [Comparative Compound 1, (S)-3-[4-[2-(5-Methyl-2-phenyl-1,3-oxazol-4-yl)ethoxy]phenyl]-2-(benzylamino)propionic Acid] | 206 to 209 | -2 | 17 | 12 |  |
| Cc1ccc(-c2nc(CCOc3ccc(C[C@H](NCc4ccc(F)cc4)C(=O)O)cc3)c(C)o2)cc1 [Compound 20, (S)-3-[4-[2-[5-Methyl-2-(4-methylphenyl)-1,3-oxazol-4-yl]ethoxy]phenyl]-2-(4-fluorobenzylamino)propionic Acid] | 196 to 198 | 25 | 36 | 21 |  |
| Cc1sc(-c2ccccc2)nc1CCOc1ccc(C[C@H](NCc2ccc(F)cc2)C(=O)O)cc1 [Compound 22, (S)-3-[4-[2-(5-Methyl-2-phenyl-1,3-thiazol-4-yl)ethoxy]phenyl]-2-(4-fluorobenzylamino)propionic Acid] | 192 to 195 | 36 | 53 | 33 |  |
| Cc1sc(N2CCOCC2)nc1CCOc1ccc(C[C@H](NCc2ccc(F)cc2)C(=O)O)cc1 [Compound 23, (S)-3-[4-[2-[5-Methyl-2-(morpholin-4-yl)-1,3-thiazol-4-yl]ethoxy]phenyl]-2-(4-fluorobenzylamino)propionic Acid] | 192 to 194 |  |  |  |  |
| Cc1oc(-c2ccccc2)nc1CCOc1ccc(C[C@H](NCc2ccccc2F)C(=O)O)cc1 [Compound 24, (S)-3-[4-[2-(5-Methyl-2-phenyl-1,3-oxazol-4-yl)ethoxy]phenyl]-2-(2-fluorobenzylamino)propionic Acid] | 191 to 193 |  |  |  |  |
| Cc1oc(-c2ccccc2)nc1CCOc1ccc(C[C@H](NCc2c(F)cccc2F)C(=O)O)cc1 [Compound 28, (S)-3-[4-[2-(5-Methyl-2-phenyl-1,3-oxazol-4-yl)ethoxy]phenyl]-2-(2,6-difluorobenzylamino)propionic Acid] | 165 to 167 | 54 | 65 | 50 |  |
| Cc1oc(-c2ccccc2)nc1CCOc1ccc(C[C@H](NCc2ccccc2Cl)C(=O)O)cc1 [Compound 32, (S)-3-[4-[2-(5-Methyl-2-phenyl-1,3-oxazol-4-yl)ethoxy]phenyl]-2-(2-chlorobenzylamino)propionic Acid] | 143 to 145 | 13 | 33 | 39 |  |
| Cc1oc(-c2ccccc2)nc1CCOc1ccc(C[C@@H](C(=O)O)N(C)Cc2ccc(F)cc2)cc1 [Compound 34, (S)-3-[4-[2-(5-Methyl-2-phenyl-1,3-oxazol-4-yl)ethoxy]phenyl]-2-[N-(4-fluorobenzyl)-N-methylamino]propionic Acid] | 142 to 145 |  |  |  |  |
| CCOC(=O)[C@H](Cc1ccc(OCCc2nc(-c3ccccc3)oc2C)cc1)NCc1ccc(F)cc1.CS(=O)(=O)O [Compound 38, Ethyl(S)-3-[4-[2-(5-methyl-2-phenyl-1,3-oxazol-4-yl)ethoxy]phenyl]-2-(4-fluorobenzylamino)propionate methanesulfonate] | 144 | 16 | 33 | 25 |  |

Continued, in another order:

| melting point [°C] | Structure (SMILES) | inhibition in vivo at 1 mg/kg/day [1, 2] [%] | inhibition in vivo at 1 mg/kg/day [1, 3] [%] | inhibition in vivo at 1 mg/kg/day [1, 4] [%] | also measured |
| --- | --- | --- | --- | --- | --- |
| 198 to 200 | Cc1oc(-c2ccccc2)nc1CCOc1ccc(C[C@H](NCc2ccc(F)cc2)C(=O)O)cc1.Cl |  |  |  |  |
| 184.5 to 186.5 | Cc1oc(-c2ccccc2)nc1CCOc1ccc(C[C@H](NCc2ccc(F)cc2)C(=O)O)cc1 [Compound 18, (S)-3-[4-[2-(5-Methyl-2-phenyl-1,3-oxazol-4-yl)ethoxy]phenyl]-2-(4-fluorobenzylamino)propionic Acid] |  |  |  | Percent reduction of blood FFA level [1]: 27%; Percent reduction of blood TG level [1]: 40%; Percent reduction of blood glucose level [1]: 15%; effect of increasing plasma adiponectin level (KKA^y mice): particularly excellent effect of increasing plasma adiponectin level |
| 191 to 193 | Cc1oc(-c2ccc(F)cc2)nc1CCOc1ccc(C[C@H](NCc2ccc(F)cc2)C(=O)O)cc1 [Compound 19, (S)-3-[4-[2-[2-(4-Fluorophenyl)-5-methyl-1,3-oxazol-4-yl]ethoxy]phenyl]-2-(4-fluorobenzylamino)propionic Acid] |  |  |  |  |
| 202 to 204 | Cc1oc(-c2ccc(C(F)(F)F)cc2)nc1CCOc1ccc(C[C@H](NCc2ccc(F)cc2)C(=O)O)cc1 [Compound 21, (S)-3-[4-[2-[5-Methyl-2-(4-trifluoromethylphenyl)-1,3-oxazol-4-yl]ethoxy]phenyl]-2-(4-fluorobenzylamino)propionic Acid] |  |  |  |  |
| 190 to 192 | Cc1oc(-c2ccccc2)nc1CCOc1ccc(C[C@H](NCc2ccc(F)cc2F)C(=O)O)cc1 [Compound 25, (S)-3-[4-[2-(5-Methyl-2-phenyl-1,3-oxazol-4-yl)ethoxy]phenyl]-2-(2,4-difluorobenzylamino)propionic Acid] |  |  |  |  |
| 202 to 204 | Cc1oc(-c2ccccc2)nc1CCOc1ccc(C[C@H](NCc2ccc(F)c(F)c2)C(=O)O)cc1 [Compound 26, (S)-3-[4-[2-(5-Methyl-2-phenyl-1,3-oxazol-4-yl)ethoxy]phenyl]-2-(3,4-difluorobenzylamino)propionic Acid] |  |  |  |  |
| 173 to 175 | Cc1oc(-c2ccccc2)nc1CCOc1ccc(C[C@H](NCc2cccc(F)c2F)C(=O)O)cc1 [Compound 27, (S)-3-[4-[2-(5-Methyl-2-phenyl-1,3-oxazol-4-yl)ethoxy]phenyl]-2-(2,3-difluorobenzylamino)propionic Acid] | 16 | 48 | 40 |  |
| 168 to 170 | Cc1oc(-c2ccccc2)nc1CCOc1ccc(C[C@H](NCc2c(F)cc(F)cc2F)C(=O)O)cc1 [Compound 29, (S)-3-[4-[2-(5-Methyl-2-phenyl-1,3-oxazol-4-yl)ethoxy]phenyl]-2-(2,4,6-trifluorobenzylamino)propionic Acid] | 58 | 74 | 43 |  |
| 197 to 199 | Cc1oc(-c2ccccc2)nc1CCOc1ccc(C[C@H](NCc2ccc(Cl)cc2)C(=O)O)cc1 [Compound 31, (S)-3-[4-[2-(5-Methyl-2-phenyl-1,3-oxazol-4-yl)ethoxy]phenyl]-2-(4-chlorobenzylamino)propionic Acid] |  |  |  |  |
| 196 to 199 | Cc1oc(-c2ccccc2)nc1CCOc1ccc(C[C@H](NCc2ccc(Br)cc2)C(=O)O)cc1 [Compound 33, (S)-3-[4-[2-(5-Methyl-2-phenyl-1,3-oxazol-4-yl)ethoxy]phenyl]-2-(4-bromobenzylamino)propionic Acid] |  |  |  |  |
| 179 to 181 | Cc1oc(-c2ccccc2)nc1CCOc1ccc(C[C@H](NCc2ccc(F)cc2)C(=O)[O-])cc1.[Na+] [Compound 35, Sodium (S)-3-[4-[2-(5-methyl-2-phenyl-1,3-oxazol-4-yl)ethoxy]phenyl]-2-(4-fluorobenzylamino)propionate] | 33 | 47 |  | Percent reduction of blood glucose level [1]: 36% |
